Test results from ChEMBL document CHEMBL3046766, “Design, synthesis, and insecticidal evaluation of new benzoylureas containing isoxazoline and isoxazole group” (2011).

Legend:
Format in all cases: functional
Mythimna separata [1] = assay: Insecticidal activity against Mythimna separata (Oriental armyworm) fourth-instar larvae infested compound pre-treated corn leaves assessed as larvicidal activity at 50 mg/L measured 4 days post treatment
Plutella xylostella [2] = assay: Insecticidal activity against Plutella xylostella (diamondback moth) […] larvae infested on compound pre-treated fresh cabbage leaves assessed as larvicidal activity at 200 mg/L measured 3 days post treatment
Culex pipiens pallens [3] = assay: Insecticidal activity against Culex pipiens pallens (mosquito) fourth-instar larvae assessed as larvicidal activity at 2 mg/L measured 8 days post treatment; details: 192 h
Mythimna separata [4] = assay: Insecticidal activity against Mythimna separata (Oriental armyworm) fourth-instar larvae infested compound pre-treated corn leaves assessed as larvicidal activity at 100 mg/L measured 4 days post treatment
Mythimna separata [5] = assay: Insecticidal activity against Mythimna separata (Oriental armyworm) fourth-instar larvae infested compound pre-treated corn leaves assessed as larvicidal activity at 25 mg/L measured 4 days post treatment
Plutella xylostella [6] = assay: Insecticidal activity against Plutella xylostella (diamondback moth) […] larvae infested on compound pre-treated fresh cabbage leaves assessed as larvicidal activity at 20 mg/L measured 3 days post treatment
Plutella xylostella [7] = assay: Insecticidal activity against Plutella xylostella (diamondback moth) […] larvae infested on compound pre-treated fresh cabbage leaves assessed as larvicidal activity at 5 mg/L measured 3 days post treatment
Culex pipiens pallens [8] = assay: Insecticidal activity against Culex pipiens pallens (mosquito) fourth-instar larvae assessed as larvicidal activity at 0.5 mg/L measured 8 days post treatment; details: 192 h
Culex pipiens pallens [9] = assay: Insecticidal activity against Culex pipiens pallens (mosquito) fourth-instar larvae assessed as larvicidal activity at 1 mg/L measured 8 days post treatment; details: 192 h
Mythimna separata [10] = assay: Insecticidal activity against Mythimna separata (Oriental armyworm) fourth-instar larvae infested compound pre-treated corn leaves assessed as larvicidal activity at 10 mg/L measured 4 days post treatment
Plutella xylostella [11] = assay: Insecticidal activity against Plutella xylostella (diamondback moth) […] larvae infested on compound pre-treated fresh cabbage leaves assessed as larvicidal activity at 0.02 mg/L measured 3 days post treatment
Plutella xylostella [12] = assay: Insecticidal activity against Plutella xylostella (diamondback moth) […] larvae infested on compound pre-treated fresh cabbage leaves assessed as larvicidal activity at 0.2 mg/L measured 3 days post treatment
Plutella xylostella [13] = assay: Insecticidal activity against Plutella xylostella (diamondback moth) […] larvae infested on compound pre-treated fresh cabbage leaves assessed as larvicidal activity at 2 mg/L measured 3 days post treatment
Mythimna separata [14] = assay: Insecticidal activity against Mythimna separata (Oriental armyworm) fourth-instar larvae infested compound pre-treated corn leaves assessed as larvicidal activity at 2.5 mg/L measured 4 days post treatment
Mythimna separata [15] = assay: Insecticidal activity against Mythimna separata (Oriental armyworm) fourth-instar larvae infested compound pre-treated corn leaves assessed as larvicidal activity at 5 mg/L measured 4 days post treatment
Mythimna separata [16] = assay: Insecticidal activity against Mythimna separata (Oriental armyworm) fourth-instar larvae infested compound pre-treated corn leaves assessed as larvicidal activity at 200 mg/L measured 4 days post treatment
Culex pipiens pallens [17] = assay: Insecticidal activity against Culex pipiens pallens (mosquito) fourth-instar larvae assessed as larvicidal activity at 0.1 mg/L measured 8 days post treatment; details: 192 h
Culex pipiens pallens [18] = assay: Insecticidal activity against Culex pipiens pallens (mosquito) fourth-instar larvae assessed as larvicidal activity at 0.25 mg/L measured 8 days post treatment; details: 192 h
Plutella xylostella [19] = assay: Insecticidal activity against Plutella xylostella (diamondback moth) […] larvae infested on compound pre-treated fresh cabbage leaves assessed as larvicidal activity at 100 mg/L measured 3 days post treatment
Culex pipiens pallens [20] = assay: Insecticidal activity against Culex pipiens pallens (mosquito) fourth-instar larvae assessed as larvicidal activity at 0.025 mg/L measured 8 days post treatment; details: 192 h
Culex pipiens pallens [21] = assay: Insecticidal activity against Culex pipiens pallens (mosquito) fourth-instar larvae assessed as larvicidal activity at 0.05 mg/L measured 8 days post treatment; details: 192 h
Mythimna separata [22] = assay: Insecticidal activity against Mythimna separata (Oriental armyworm) fourth-instar larvae infested compound pre-treated corn leaves assessed as larvicidal activity at 1 mg/L measured 4 days post treatment

SMILES	mortality at 50 µg/mL (Mythimna separata [1])	mortality at 200 µg/mL (Plutella xylostella [2])	mortality at 2 µg/mL (Culex pipiens pallens [3])	mortality at 100 µg/mL (Mythimna separata [4])	mortality at 20 µg/mL (Plutella xylostella [6])	mortality at 200 µg/mL (Mythimna separata [16])	other results
O=C(NC(=O)c1c(F)cccc1F)Nc1ccc(C2=NOC3(CCCCC3)C2)cc1	40%	20%	70%	100%			
O=C(NC(=O)c1c(F)cccc1F)Nc1ccc(C2=NOC3(CCCC3)C2)cc1	60%	10%	80%	100%			
O=C(NC(=O)c1c(F)cccc1F)Nc1ccc(C2=NOC3CCCC23)cc1 (stereo not drawn)	0%	0%	50%	100%			
O=C(NC(=O)c1c(F)cccc1F)Nc1ccc(C2=NOC3CC23)cc1 (stereo not drawn)	0%	10%	60%	100%			
O=C(NC(=O)c1c(F)cccc1F)Nc1ccc(C2CC(c3ccc(F)cc3)=NO2)cc1 (stereo not drawn)	100%	100%	100%		70%		mortality at 25 µg/mL (Mythimna separata [5]): 100%; mortality at 5 µg/mL (Plutella xylostella [7]): 0%; mortality at 0.5 µg/mL (Culex pipiens pallens [8]): 70%; mortality at 1 µg/mL (Culex pipiens pallens [9]): 100%; mortality at 10 µg/mL (Mythimna separata [10]): 60%
CC(C)(C)C1=NOC(c2ccc(NC(=O)NC(=O)c3c(F)cccc3F)cc2)C1 (stereo not drawn)	100%	100%	100%		100%		mortality at 25 µg/mL (Mythimna separata [5]): 100%; mortality at 5 µg/mL (Plutella xylostella [7]): 30%; mortality at 1 µg/mL (Culex pipiens pallens [9]): 80%; mortality at 10 µg/mL (Mythimna separata [10]): 40%
CC(C)(C)c1cc(-c2ccc(NC(=O)NC(=O)c3c(F)cccc3F)cc2)no1			40%				mortality at 0.02 µg/mL (Plutella xylostella [11]): 30%; mortality at 0.2 µg/mL (Plutella xylostella [12]): 60%; mortality at 2 µg/mL (Plutella xylostella [13]): 100%; mortality at 5 µg/mL (Plutella xylostella [7]): 100%; mortality at 2.5 µg/mL (Mythimna separata [14]): 0%; mortality at 5 µg/mL (Mythimna separata [15]): 100%; mortality at 10 µg/mL (Mythimna separata [10]): 100%
O=C(NC(=O)c1c(F)cccc1F)Nc1ccc(-c2cc(COCC(F)(F)F)on2)cc1	20%	30%	40%	100%	0%	100%	
CCCCOCc1cc(-c2ccc(NC(=O)NC(=O)c3c(F)cccc3F)cc2)no1	80%	0%	60%	100%		100%	
Cc1cc(-c2ccc(NC(=O)NC(=O)c3c(F)cccc3F)cc2)no1	20%	10%	20%	100%		100%	
CCCCCCCCc1cc(-c2ccc(NC(=O)NC(=O)c3c(F)cccc3F)cc2)no1	20%	10%	40%	100%		100%	
CC(C)(C)C1CC(c2ccc(NC(=O)NC(=O)c3c(F)cccc3F)cc2)=NO1 (stereo not drawn)	100%						mortality at 25 µg/mL (Mythimna separata [5]): 100%; mortality at 0.02 µg/mL (Plutella xylostella [11]): 10%; mortality at 0.2 µg/mL (Plutella xylostella [12]): 70%; mortality at 2 µg/mL (Plutella xylostella [13]): 80%; mortality at 5 µg/mL (Plutella xylostella [7]): 100%; mortality at 0.1 µg/mL (Culex pipiens pallens [17]): 50%; mortality at 0.25 µg/mL (Culex pipiens pallens [18]): 100%; mortality at 5 µg/mL (Mythimna separata [15]): 40%; mortality at 10 µg/mL (Mythimna separata [10]): 100%
O=C(NC(=O)c1c(F)cccc1F)Nc1ccc(C2=NOC(c3ccc(F)cc3)C2)cc1 (stereo not drawn)			40%		100%	10%	mortality at 2 µg/mL (Plutella xylostella [13]): 30%; mortality at 5 µg/mL (Plutella xylostella [7]): 80%
CCCCC1CC(c2ccc(NC(=O)NC(=O)c3c(F)cccc3F)cc2)=NO1 (stereo not drawn)	0%	80%	30%	100%	20%	100%	mortality at 100 µg/mL (Plutella xylostella [19]): 70%
O=C(NC(=O)c1c(F)cccc1F)Nc1ccc(C2=NOC(CBr)C2)cc1 (stereo not drawn)	20%	40%	60%	100%	0%		
CCCCCCCC1CC(c2ccc(NC(=O)NC(=O)c3c(F)cccc3F)cc2)=NO1 (stereo not drawn)	60%	0%	50%	100%			
N#CC1CC(c2ccc(NC(=O)NC(=O)c3c(F)cccc3F)cc2)=NO1 (stereo not drawn)	0%	0%		100%			mortality at 0.1 µg/mL (Culex pipiens pallens [17]): 70%; mortality at 0.25 µg/mL (Culex pipiens pallens [18]): 100%
COC(=O)C1CC(c2ccc(NC(=O)NC(=O)c3c(F)cccc3F)cc2)=NO1 (stereo not drawn)	0%	10%	60%	100%			
CCCCOCC1CC(c2ccc(NC(=O)NC(=O)c3c(F)cccc3F)cc2)=NO1 (stereo not drawn)	40%	10%	100%	100%			mortality at 1 µg/mL (Culex pipiens pallens [9]): 80%
O=C(NC(=O)c1c(F)cccc1F)Nc1ccc(C2=NOC(COCC(F)(F)F)C2)cc1 (stereo not drawn)	60%	0%	40%	100%			
O=C(NC(=O)c1c(F)cccc1F)Nc1ccc(C2=NOC(c3ccccc3)C2)cc1 (stereo not drawn)	0%	50%		100%	30%		mortality at 0.1 µg/mL (Culex pipiens pallens [17]): 90%; mortality at 0.25 µg/mL (Culex pipiens pallens [18]): 100%
CC1(c2ccccc2)CC(c2ccc(NC(=O)NC(=O)c3c(F)cccc3F)cc2)=NO1 (stereo not drawn)	60%	100%		100%	30%	100%	mortality at 100 µg/mL (Plutella xylostella [19]): 80%; mortality at 0.5 µg/mL (Culex pipiens pallens [8]): 100%; mortality at 0.1 µg/mL (Culex pipiens pallens [17]): 80%; mortality at 0.25 µg/mL (Culex pipiens pallens [18]): 100%
O=C(NC(=O)c1c(F)cccc1F)Nc1ccc(CO/N=C(/c2ccc(Cl)cc2)C2CC2)cc1 [FLUCYCLOXURON]							mortality at 0.025 µg/mL (Culex pipiens pallens [20]): 15%; mortality at 0.05 µg/mL (Culex pipiens pallens [21]): 100%; mortality at 0.1 µg/mL (Culex pipiens pallens [17]): 100%; mortality at 2.5 µg/mL (Mythimna separata [14]): 50%; mortality at 1 µg/mL (Mythimna separata [22]): 10%; mortality at 5 µg/mL (Mythimna separata [15]): 90%; mortality at 10 µg/mL (Mythimna separata [10]): 95%
